Reference: ChEMBL document CHEMBL5233263 (Eur J Med Chem, 2021)

Assays:
D(2) dopamine receptor [1] = target: T1, D(2) dopamine receptor (Homo sapiens, UniProt P14416); test: Binding affinity to D2R (unknown origin) assessed as inhibition constant
D(3) dopamine receptor [2] = target: T2, D(3) dopamine receptor (Homo sapiens, UniProt P35462); test: Binding affinity to D3R (unknown origin) assessed as inhibition constant
[3] = target: T3, D(4) dopamine receptor (Homo sapiens) (UniProt P21917); test: Binding affinity to human D4R at 1 uM relative to control
T3 sequence (whole entry): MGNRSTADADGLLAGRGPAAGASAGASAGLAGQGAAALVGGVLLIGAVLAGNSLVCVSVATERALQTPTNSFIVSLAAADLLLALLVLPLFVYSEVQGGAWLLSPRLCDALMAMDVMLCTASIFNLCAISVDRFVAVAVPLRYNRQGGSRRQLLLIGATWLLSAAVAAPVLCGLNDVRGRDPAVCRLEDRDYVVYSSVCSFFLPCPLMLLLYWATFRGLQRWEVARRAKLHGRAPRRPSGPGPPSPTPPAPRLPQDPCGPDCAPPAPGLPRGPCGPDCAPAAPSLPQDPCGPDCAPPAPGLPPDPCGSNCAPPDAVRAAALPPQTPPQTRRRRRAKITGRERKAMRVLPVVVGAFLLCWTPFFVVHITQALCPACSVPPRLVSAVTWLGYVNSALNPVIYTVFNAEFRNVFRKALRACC

D(4) dopamine receptor [4] = target: T4, D(4) dopamine receptor (Homo sapiens, UniProt P21917); test: Displacement of [3H]-spiperone from human D4 receptor expressed in CHO cells assessed as inhibition constant; type: cell-based
T4 sequence (P21917 whole entry): T3 sequence (whole entry)

D(2) dopamine receptor [5] = target: T1, D(2) dopamine receptor; test: Displacement of [3H]-spiperone from human D2 receptor expressed in Sf9 cells assessed as inhibition constant
D(4) dopamine receptor [6] = target: T4, D(4) dopamine receptor; test: Agonist activity at D4R (unknown origin) by camp reporter assay
D(2) dopamine receptor [7] = target: T1, D(2) dopamine receptor; test: Binding affinity to human D2R assessed as inhibition constant
D(3) dopamine receptor [8] = target: T2, D(3) dopamine receptor; test: Binding affinity to human D3R assessed as inhibition constant
D(4) dopamine receptor [9] = target: T4, D(4) dopamine receptor; test: Displacement of [3H]-spiperone from human D4 receptor expressed in CHO-K1 cells assessed as inhibition constant measured after 60 mins; type: cell-based
D(3) dopamine receptor [10] = target: T2, D(3) dopamine receptor; test: Displacement of [3H]-spiperone from human D3 receptor assessed as inhibition constant
D(2) dopamine receptor [11] = target: T1, D(2) dopamine receptor; test: Displacement of [3H]-spiperone from human D2 receptor assessed as inhibition constant
D(4) dopamine receptor [12] = target: T4, D(4) dopamine receptor; test: Agonist activity at D4R (unknown origin)
[13] = target: 5-hydroxytryptamine receptor 2A (Homo sapiens, UniProt P28223); test: Binding affinity to 5HT2A receptor (unknown origin) assessed as inhibition constant
Sequence of 5-hydroxytryptamine receptor 2A (P28223 whole entry): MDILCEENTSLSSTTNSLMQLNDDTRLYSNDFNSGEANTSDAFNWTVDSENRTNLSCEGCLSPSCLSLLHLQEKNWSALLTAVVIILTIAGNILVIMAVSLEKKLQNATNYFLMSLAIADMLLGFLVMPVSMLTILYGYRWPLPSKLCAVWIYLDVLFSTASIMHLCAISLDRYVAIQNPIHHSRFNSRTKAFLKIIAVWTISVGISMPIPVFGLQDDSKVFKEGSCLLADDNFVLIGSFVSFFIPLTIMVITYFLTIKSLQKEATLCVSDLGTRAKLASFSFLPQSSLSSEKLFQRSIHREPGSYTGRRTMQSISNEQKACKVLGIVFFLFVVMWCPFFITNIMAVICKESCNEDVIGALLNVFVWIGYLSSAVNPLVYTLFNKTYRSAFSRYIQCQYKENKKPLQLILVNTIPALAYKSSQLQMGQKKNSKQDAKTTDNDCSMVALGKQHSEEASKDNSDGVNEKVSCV

D(4) dopamine receptor [14] = target: T4, D(4) dopamine receptor; test: Binding affinity to human D4R assessed as inhibition constant
D(4) dopamine receptor [15] = target: T4, D(4) dopamine receptor; test: (§1) Displacement of [3H]-nemonapride from human D4 receptor expressed in CHO cells assessed as inhibition constant; type: cell-based
[16] = target: T3, D(4) dopamine receptor (Homo sapiens); test: Agonist activity at human D4R at 10 uM relative to control
D(4) dopamine receptor [17] = target: T4, D(4) dopamine receptor; test: Agonist activity at human D4R
D(2) dopamine receptor [18] = target: T1, D(2) dopamine receptor; test: Binding affinity to human D2R assessed as inhibition constant by Cheng-Prusoff equation analysis
[19] = target: T3, D(4) dopamine receptor (Homo sapiens); test: as §1; type: cell-based
D(4) dopamine receptor [20] = target: T4, D(4) dopamine receptor; test: Displacement of [3H]-methylspiperone from D4 (unknown origin) receptor expressed in HEK293T cells assessed as inhibition constant; type: cell-based
D(4) dopamine receptor [21] = target: T4, D(4) dopamine receptor; test: Binding affinity to D4R (unknown origin) assessed as inhibition constant
D(4) dopamine receptor [22] = target: T4, D(4) dopamine receptor; test: Displacement of [3H]-spiperone from human D4 receptor expressed in HEK293 cells assessed as inhibition constant; type: cell-based
[23] = target: T3, D(4) dopamine receptor (Homo sapiens); test: Agonist activity at human D4R assessed as [35S] GTPgammaS binding relative to control; conditions: filed as agonist
D(4) dopamine receptor [24] = target: T4, D(4) dopamine receptor; test: Agonist activity at human D4R assessed as [35S] GTPgammaS binding
D(3) dopamine receptor [25] = target: T2, D(3) dopamine receptor; test: Displacement of [3H]-spiperone from human D3 receptor expressed in CHO cells assessed as inhibition constant; type: cell-based
D(2) dopamine receptor [26] = target: T1, D(2) dopamine receptor; test: Agonist activity at human D2R expressed in HEK293 cells incubated for 3 mins by FLIPR analysis; type: cell-based

T2 sequence (P35462 whole entry): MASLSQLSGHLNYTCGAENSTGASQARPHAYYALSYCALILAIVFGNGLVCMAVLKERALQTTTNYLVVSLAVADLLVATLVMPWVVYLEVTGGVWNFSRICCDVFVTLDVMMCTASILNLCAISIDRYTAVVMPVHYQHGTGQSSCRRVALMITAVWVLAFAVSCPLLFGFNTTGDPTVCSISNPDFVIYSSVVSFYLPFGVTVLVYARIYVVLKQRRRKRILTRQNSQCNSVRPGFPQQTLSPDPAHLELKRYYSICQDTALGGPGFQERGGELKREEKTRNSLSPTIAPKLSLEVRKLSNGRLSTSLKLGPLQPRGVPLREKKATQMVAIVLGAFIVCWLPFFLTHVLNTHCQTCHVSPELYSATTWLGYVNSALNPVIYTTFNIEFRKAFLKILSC
T1 sequence (P14416 whole entry): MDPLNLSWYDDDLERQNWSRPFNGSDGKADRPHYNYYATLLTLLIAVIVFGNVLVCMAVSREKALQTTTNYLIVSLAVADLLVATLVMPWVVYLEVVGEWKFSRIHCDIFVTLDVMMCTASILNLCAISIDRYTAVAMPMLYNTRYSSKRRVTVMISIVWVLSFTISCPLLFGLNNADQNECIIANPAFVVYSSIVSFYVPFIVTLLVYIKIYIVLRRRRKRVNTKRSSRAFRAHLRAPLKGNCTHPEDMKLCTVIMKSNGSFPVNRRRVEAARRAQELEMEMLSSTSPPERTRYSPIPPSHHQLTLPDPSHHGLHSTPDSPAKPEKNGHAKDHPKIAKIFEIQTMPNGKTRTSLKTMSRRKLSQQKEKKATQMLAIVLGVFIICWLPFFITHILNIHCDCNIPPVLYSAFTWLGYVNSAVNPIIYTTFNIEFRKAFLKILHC

In the case of `COc1cccc(CCC2=NCCN2CCc2ccccc2)c1`, the Ki (D(2) dopamine receptor [1]) is reported as over 10000 nM and the Ki (D(3) dopamine receptor [2]) is reported as over 10000 nM.

With `Clc1ccc2c(c1)N=C(N1CCN(CCCOc3ccccc3)CC1)c1ccccc1N2` the Activity [3] was 81%.

`COc1cc(Cl)ccc1OCC1CN(Cc2ccc(Cl)cc2)CCO1` (centres undefined) was tested, and the Ki (D(4) dopamine receptor [4]) was 2.8 nM.

`Oc1cccc(OCCNCC2COCC(c3ccccc3)(c3ccccc3)O2)c1` (centres undefined) showed a Ki (D(2) dopamine receptor [1]) of over 10000 nM and a Ki (D(3) dopamine receptor [2]) of 1.4 nM.

In the case of `CC(C)Oc1cccnc1N(C)C1CCN(Cc2ccc(I)cc2)CC1`, the Ki (D(2) dopamine receptor [5]) is reported as 568 nM.

With `CCOC(=O)c1nn(-c2ccccc2)cc1CN(C)[C@@H]1CCSC1` the EC50 (D(4) dopamine receptor [6]) was 10800 nM.

Molecule `Clc1ccc2c(c1)N=C(N1CCN(CCCCc3ccccc3)CC1)c1ccccc1N2` has an Activity [3] of 82%.

In the case of `CCOC(=O)c1[nH]c2ccc(F)cc2c1CN1CCN(c2ccccc2)CC1`, the Ki (D(2) dopamine receptor [7]) is reported as 22000 nM, the Ki (D(3) dopamine receptor [8]) is reported as 15000 nM and the Ki (D(4) dopamine receptor [4]) is reported as 1.5 nM.

With `Clc1ccc2c(c1)N=C(N1CCN(c3ccccc3)CC1)CCN2` the Ki (D(4) dopamine receptor [9]) was 31 nM, the Ki (D(3) dopamine receptor [10]) was 3400 nM and the Ki (D(2) dopamine receptor [11]) was 4700 nM.

For `CC(=O)O[C@H]1CC(C)(C)C(=C=C/C(C)=C/C=C/C(C)=C/C=C/C=C(C)/C=C/C=C(\C)C(=O)C[C@@]23O[C@]2(C)C[C@@H](O)CC3(C)C)[C@](C)(O)C1`, the EC50 (D(4) dopamine receptor [12]) was 16900 nM and the EC50 (D(4) dopamine receptor [6]) was 82000 nM.

`N#Cc1[nH]c2ccccc2c1CN1CCN(c2ccccc2)CC1` showed a Ki (D(2) dopamine receptor [7]) of 4900 nM, a Ki (D(3) dopamine receptor [8]) of 2500 nM and a Ki (D(4) dopamine receptor [4]) of 0.76 nM.

With `Clc1ccc2c(c1)C(N1CCN(CCc3ccccc3)CC1)=Nc1cccnc1N2` the Ki [13] was 103 nM.

With `COc1ccccc1OCCNCC1COCC(c2ccccc2)(c2ccccc2)O1` (centres undefined) the Ki (D(2) dopamine receptor [1]) was over 10000 nM, the EC50 (D(4) dopamine receptor [6]) was 1.4 nM and the Ki (D(3) dopamine receptor [2]) was 13 nM.

`CCOC(=O)N1CCN(Cc2cnn(-c3ccc(Cl)cc3)c2)CC1` gave a Ki (D(2) dopamine receptor [1]) of 10200 nM, a Ki (D(4) dopamine receptor [14]) of 260 nM and a Ki (D(4) dopamine receptor [15]) of 260 nM.

In the case of `Cc1ncc(CN2CC=C(c3ccccc3)CC2)c(N)n1`, the Ki (D(2) dopamine receptor [7]) is reported as over 1000 nM, the Emax [16] is reported as 36% and the Ki (D(3) dopamine receptor [8]) is reported as over 1000 nM. It also gave an EC50 (D(4) dopamine receptor [17]) of 205 nM and a Ki (D(4) dopamine receptor [4]) of 5.2 nM.

`CN(C)[C@@H](CNC(=O)NC[C@H]1Cc2ccccc21)CC1CCCCC1` gave a Ki (D(2) dopamine receptor [1]) of over 10000 nM and a Ki (D(3) dopamine receptor [2]) of 5400 nM.

Molecule `Clc1ccc2c(c1)N=C(N1CCN(CCCCc3ccncc3)CC1)c1ccccc1N2` has an Activity [3] of 78%.

With `CCOC(=O)c1sc2[nH]cn/c(=N\[C@H]3CCN(CC)C3)c2c1C` the Ki (D(2) dopamine receptor [1]) was over 10000 nM and the Ki (D(3) dopamine receptor [2]) was over 10000 nM.

For `OCc1ccc(N2CCN(Cc3nc4ccccc4[nH]3)CC2)cc1Cl`, the Ki (D(2) dopamine receptor [18]) was over 5880 nM and the K [19] was 3.6 nM.

For `CC(C)N1C[C@H](NC(=O)N2Cc3ccccc3[C@@H]2C)[C@@H](C)C1`, the Ki (D(2) dopamine receptor [1]) was over 10000 nM, the Ki (D(4) dopamine receptor [20]) was 4.3 nM and the EC50 (D(4) dopamine receptor [6]) was 0.18 nM. The Ki (D(3) dopamine receptor [2]) was over 10000 nM.

With `NS(=O)(=O)c1ccc(N2CCN(CCC3OCCc4ccccc43)CC2)cc1` (centres undefined) the Ki (D(2) dopamine receptor [1]) was 5150 nM, the Ki (D(4) dopamine receptor [21]) was 3.6 nM and the Ki (D(3) dopamine receptor [2]) was over 2780 nM.

`Clc1ccc(OCC2CN(Cc3c[nH]c4ncccc34)CCO2)cc1` (centres undefined) showed a K (D(2) dopamine receptor [1]) of over 1700 nM, a Ki (D(4) dopamine receptor [22]) of 1.5 nM and a Ki (D(3) dopamine receptor [2]) of 3200 nM.

`COc1ccccc1N1CCN(Cc2ccc3cccccc2-3)CC1` showed an Emax [23] of 54%, an EC50 (D(4) dopamine receptor [24]) of 3.7 nM and a Ki (D(3) dopamine receptor [25]) of 82 nM.

Molecule `OCc1[nH]c2ccccc2c1CN1CCN(c2ccccc2)CC1` has a Ki (D(2) dopamine receptor [7]) of 2100 nM, a Ki (D(3) dopamine receptor [8]) of 3300 nM and a Ki (D(4) dopamine receptor [4]) of 0.66 nM.

`c1ccc(N2CCN(Cc3nc4ccccc4[nH]3)CC2)nc1` [ABT-724] showed an EC50 (D(2) dopamine receptor [26]) of 12 nM.

`O/N=C/c1c(CN2CCN(c3ccccc3)CC2)[nH]c2ccccc12` showed a Ki (D(2) dopamine receptor [7]) of 8800 nM, a Ki (D(3) dopamine receptor [8]) of 3700 nM and a Ki (D(4) dopamine receptor [4]) of 0.5 nM.
